Ends that are not written are not given here.
Assays:
[1] = tested on: tumor cells (K562); set-up: method as in printed at the place; details: other TREM-1 ligands, 'just as it was shown'; no ref given; cited from earlier work
[2] = tested on: MHC-negative tumor cells; details: ref [24,27,42]; cited from earlier work
Excerpt: The interaction of ligands with TREM-1 on the cell membrane leads to dimerization of the receptor, followed by activation of the metalloprotease MMP-9 [37], cleavage, and dissociation of the exodomain from the cell surface. sTREM-1 is considered a biomarker of infection and viral diseases. Further activation of the receptor develops in two ways. Triggering cascades of tyrosine kinases leads to activation of the NFkß factor, expression of pro-inflammatory cytokines, and development of inflammatory processes. In turn, the release of cytokines leads to the appearance of ...

[3] = tested on: TREM-1 receptor; experiment: Inhibition of cytotoxicity induced by the sum of N9 and N15 peptides; type: cell-based, human; details: PBMC with N9 + N15, 6 days; K562
Description: (§1) The combined effect of these peptides stimulated the activation of cytotoxic lymphocytes. […] In addition, the induction of the cytotoxic effect of lymphocytes is TREM-1-dependent.
(§2) For cytotoxicity tests, cells of the K562 line were cultured in 96-well plates (Luoyang Fudau Biotech Co, Luoyang, Henan, China) (6 × 10^4 per well) before the addition of lymphocytes (1.2 × 10^6 per well) and then incubated at 37 °C in an atmosphere with 5% CO2 for 3–20 h. Cytotoxicity was measured using a Cytotox 96 analysis kit (Promega, Madison, WI, USA) after 24 h of incubation in accordance with the manufacturer’s protocol. […] Polyclonal antibodies to Tag7 were obtained from ABclonal (ABclonal, Woburn, MA, USA). Monoclonal antibodies to TREM-1 were obtained from Thermo Fisher Scientific (Thermo Fisher Scientific, Waltham, MA, USA).

[4] = tested on: K562 cells; experiment: Cytotoxic activity of human PBMC incubated 6 days with Tag7 peptides (single or combined), tested on K562 cells; type: cell-based; details: single peptide, 10^−9 M, human PBMC 6 days, then K562; n = 5
Description: The synthesized peptides were incubated with isolated human PBMC for 6 days. Thereafter, the activated lymphocytes were added to MHC-negative tumor cells of the K562 line, and their cytotoxic effect on these cells was determined.
as §1
K562, RAW264.7 cells were cultivated in RPMI-1640 (Himedia Laboratories Private Limited, Maharashtra, India) with 2 mM L glutamine, 10% FCS (Invitrogen, Carlsbad, CA, USA), with 1% kanamycin (Thermo Fisher Scientific, Waltham, MA, USA). […] CD4+ (CD8+) T-lymphocytes were isolated from the PBMCs using the Dynabeads^TM Untouched^TM Human CD4 T Cells Kit, and NK cells were isolated from PBMC by Dynabeads^TM Untouched^TM Human NK Cells Kit according to the manufacturer’s protocol (Thermo Fisher Scientific, Waltham, MA, USA).
as §2

[5] = tested on: TREM-1 receptor; experiment: Inhibition of cytotoxic activity of PBMC induced by peptide N3; type: cell-based, human; details: PBMC preincubated 1 h with peptide (10^−9 M), then N3 added; cytotoxicity after 6 days, K562
Description: The inhibitory and activating activities were investigated. To determine the inhibitory activity, PBMC were preincubated with the studied peptides for 1 h, then the activating peptide N3 was added, and the cytotoxic activity of lymphocytes was determined after 6 days.
as §2

Row | Substance | type of tumor cell death induced [1] | stimulation of cytokines and activation of cytotoxic lymphocytes [2] | inhibition of cytotoxicity of the sum of N9 and N15 [3] | activation of cytotoxic lymphocytes [4] | inhibition of N3-stimulated cytotoxic activity [5]
1 | HMGB1: multifunctional protein, TREM-1 ligand | induced apoptosis and necroptosis in tumor cells | not only stimulate the production of pro-inflammatory cytokines but also induce the activation of cytotoxic lymphocytes against MHC-negative tumor cells | – | – | –
2 | Hsp70: main heat shock protein, TREM-1 ligand | induced apoptosis and necroptosis in tumor cells | not only stimulate the production of pro-inflammatory cytokines but also induce the activation of cytotoxic lymphocytes against MHC-negative tumor cells | – | – | –
3 | LQVTDSGLYRCVIYHPP [LP17, reference compound] | – | – | inhibited | – | –
4 | PASCQQQAR [N9] | – | – | – | do not activate cytotoxic lymphocytes | inhibited the development of cytotoxic activity stimulated by peptide N3
5 | RNVQHYHMKT [17.0] | – | – | inhibited | do not activate cytotoxic lymphocytes | inhibited the development of cytotoxic activity stimulated by peptide N3
6 | RYVVVSHTAGSSCNT [N15] | – | – | – | do not activate cytotoxic lymphocytes | had no inhibitory effect on the induction of the TREM-1-dependent signal
7 | Tag7: innate immunity protein PGLYRP1; recombinant Tag7 | induced apoptosis and necroptosis in tumor cells | not only stimulate the production of pro-inflammatory cytokines but also induce the activation of cytotoxic lymphocytes against MHC-negative tumor cells | – | – | –

From PMC12071940, “Shortened PGLYRP1 Peptides Regulate Antitumor Activity of Cytotoxic Lymphocytes via TREM-1 Receptor: From Biology to Bioinformatics” (International Journal of Molecular Sciences, 2025)
